B1: BDNF: Brain-derived neurotrophic factor, used as a positive (neuroprotective) control (protein, UniProt P23560 19-247, looked up)
Neurotrophic factor BDNF …: APMKEANIRGQGGLAYPGVRTHGTLESVNGPKAGSRGLTSLADTFEHVIEELLDEDQKVRPNEENNKDADLYTSRVMLSSQVPLEPPLLFLLEEYKNYLDAANMSMRVRRHSDPARRGELSVCDSISEWVTAADKKTAVDMSGGTVTVLEKVPVSKGQLKQYFYETKCNPMGYTKEGCRGIDKRHWNSQCRTTQSYVRALTMDSKKRIGWRFIRIDTSCVCTLTIKRGR

Columns and labels:
[1] = test system: rat primary cortical neurons; assay: Neurite outgrowth (neurites length) in beta-amyloid Aβ25-35 intoxicated rat primary cortical neuron culture; type: cell-based; settings: Aβ25-35 20 μM for 2 days, drug added 1 hour before, Fig. 1A, 1B
Text: Viable cells are counted in a Neubauer cytometer using the trypan blue exclusion test.

[2] = test system: rat primary cortical neurons; assay: LDH release in human Aβ1-42 toxicity on rat primary cortical cells; type: cell-based; settings: 1 h pre-treatment, Aβ1-42 10 μM for 24 h
Procedure: Primary rat cortical neurons are cultured as described previously. […] The control medium was prepared in the same conditions.
Cortical neurons were intoxicated for 24 hours. Three separate cultures were performed per condition, 6 wells per condition.
This colorimetric assay for the quantification of cell toxicity is based on the measurement of lactate dehydrogenase (LDH) activity released from the cytosol of dying cells into the supernatant.

| Molecule | Prevention of Aβ25-35 intoxication (neurite outgrowth, neurites length) [1] | Prevention of Aβ1-42 intoxication, change of LDH release ([2]; Fig. 3B, 3C) [%] | Protection from Aβ1-42 amyloid injury (LDH release) ([2]; Fig. 3A) |
| --- | --- | --- | --- |
| CC(=O)NCCCS(=O)(=O)O [Acamprosate] | significantly prevented | – | – |
| NS(=O)(=O)Cc1noc2ccccc12 [Zonisamide] | significantly prevented | −75 | – |
| B1 | efficiently prevented | – | significantly protected |

Reference: patent publication US10874644B2, “Therapeutic approaches for treating Alzheimer disease and related disorders through a modulation of synapse function” (Pharnext, priority 2008, dated 2020)
